What follows are compounds tested against T1, N-acylethanolamine-hydrolyzing acid amidase (Homo sapiens, UniProt Q02083) (assay: Determining Endocannabinoid Hydrolase Activity: In the Experimental example, endocannabinoid hydrolases used were Fatty Acid Amide Hydrolase (FAAH) and N-acylethanolamide hydrolyzing acid amidase (NAAA), which were prepared by the method described in the document (PMCID: PMC3423427, PMC3723234, PMC2692831, PMC3382457). The preparation method was as followed: a plasmid (pCDNA3.1/NAAA or pCDNA3.1/FAAH) carrying a whole NAAA/FAAH gene was constructed, wherein the plasmid carried Cytomegalovirus (CMV) promoter and Neomycin selectable gene; the plasmid was transformed into HEK-293 cell via lipid medium, stable cell lines expressing NAAA/FAAH at a high level were obtained by G418 screening and Western-blot method. HEK-293 recombinant cells were cultured and collected, washed with PBS for 2-3 times, and ultrasonically treated in 20 mM Tris-HCl containing 0.32 M sucrose, then repeatedly frozen and thawed twice, and then centrifuged at 4° C., 800 g for 15 min. The supernatant (i.e., the desired protein) was collected, the protein concentration was determined by BCA method, and the protein was diluted to a concentration of 1 mg/mL, and sub-packaged and stored in a refrigerator at −80° C. for further use.In the Experimental example, PBS solution used was prepared as followed: 8 g NaCl, 0.2 g KCl, 1.44 g Na2HPO4, and 0.24 g KH2PO4 were dissolved in 1 L ultrapure water, and the resultant solution was subjected to moist heat sterilization and stored at 4° C.30 μL (1 mg/mL) endocannabinoid hydrolase was added to a sample vial, and 2 μL DMSO (Blank control group) or a different concentration of a test compound (Compounds 1-46 prepared in the Examples according to the invention) was further added. The reaction was carried out at 37° C. for 10 min. 170 μL buffer (the buffer consisted of 50 mM disodium Hydrogen Phosphate, 0.1% Triton X-100, 3 mM DTT, 150 μL) containing enzymatic hydrolysis substrate (the substrate was a heptadecenoyl ethanolamine containing a double bond and 17 carbon atoms, abbreviated as 17:1 FAE) was further added, wherein the concentration of 17:1 FAE was 5 μM. The reaction was carried out at 37° C. for 30 min, and 200 μL methanol solution containing internal standard (the internal standard was margaric acid, at a concentration of 1 nmol) was then added to stop the reaction. LC-MS was used to determine the yield of the hydrolysate 17:1 FA (i.e., a heptadecenoic acid containing a double bond) of 17:1 FAE, then a graph was plotted with Graphpad Prism 5. Thereby, the IC50 of the test compound on endocannabinoid hydrolase was determined.By the method above, the inhibitory effects of the Compounds 1-46 prepared in the invention on NAAA and FAAH were determined.).
T1 sequence (Q02083 whole entry): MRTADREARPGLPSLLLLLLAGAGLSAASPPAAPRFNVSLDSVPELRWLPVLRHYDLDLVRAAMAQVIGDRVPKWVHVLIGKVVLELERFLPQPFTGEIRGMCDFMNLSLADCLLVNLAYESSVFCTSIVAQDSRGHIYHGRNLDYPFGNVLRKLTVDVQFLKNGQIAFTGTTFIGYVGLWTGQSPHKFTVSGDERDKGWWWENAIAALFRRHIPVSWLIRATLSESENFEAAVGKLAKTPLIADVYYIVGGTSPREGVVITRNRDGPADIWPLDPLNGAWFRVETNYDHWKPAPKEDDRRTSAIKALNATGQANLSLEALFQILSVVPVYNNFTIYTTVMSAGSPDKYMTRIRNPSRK

In order of rising IC50:
1. O=C(CCCCCC1CCCNC1)N1CCOC1=O (stereo not given)  130 nM
2. O=C(CCCCCC1CCCCC1)N1CCOC1=O  180 nM
3. O=C(CCCCCc1ccccc1)N1CCOC1=O  210 nM
4. O=C(CCCCCc1cccc(F)c1)N1CCOC1=O  250 nM
5. O=C(CCCCCc1ccsc1)N1CCOC1=O  340 nM
6. O=C(CCCCCc1ccoc1)N1CCOC1=O  360 nM
7. O=C1OCCN1C(=O)c1ccc(Oc2cccc(Cl)c2)cc1  370 nM
8. O=C(CCCCc1cccc(Cl)c1)N1CCOC1=O  370 nM
9. CC(=O)C[C@@H]1COC(=O)N1C(=O)CCCCCc1cccc(C)c1  380 nM
10. CC(=O)C[C@@H]1COC(=O)N1C(=O)CCCCCc1ccc(C)cc1  450 nM
11. O=C(CCCCc1ccc(F)cc1)N1CCOC1=O  850 nM
12. C[C@@H]1COC(=O)N1C(=O)CCCCCc1ccccc1  910 nM
13. O=C(CCCCCc1ccc2ccccc2c1)N1CCOC1=O  920 nM
14. O=C(CCCCCCc1ccc(Cl)cc1Cl)N1CCOC1=O  2200 nM
15. O=C1OCCN1C(=O)c1ccc(OCc2ccccc2)cc1  3400 nM
16. O=C(CCCCCc1ccc(Cl)cc1)N1CCOC1=O  5100 nM
17. CCCCCCCCCCCCCCCC(=O)N1CCNC1=O  5400 nM
18. O=C(CCCCCc1ccc2cc(F)ccc2c1)N1CCOC1=O  5700 nM
19. O=C(CCCCCCc1ccccc1)N1CCOC1=O  9400 nM
20. O=C1OCCN1C(=O)c1cccc(-c2ccccc2)c1  9500 nM
21. O=C(CCCCc1ccccc1)N1CCOC1=O  11200 nM
22. O=C(CCCCCCCc1ccccc1)N1CCOC1=O  21000 nM
23. O=C(CCCCCc1c[nH]c2ccccc12)N1CCOC1=O  23500 nM
24. CCCCCCCCCCCCCCCC(=O)N1CCOC1=O  46800 nM
25. O=C1OCCN1C(=O)c1cccc(OCc2ccccc2)c1  78600 nM
